Results on 14 compounds are retold here after US5948791A, “Quinoline derivatives for treating malaria” (Hoffmann-La Roche Inc., priority 1995, dated 1999).

The subject of data set [1] is Plasmodium falciparum strain NF54. Put plainly: Growth inhibition of Plasmodium falciparum NF54 (chloroquine-sensitive) in vitro, [G-3H]-hypoxanthin incorporation. To be noted: chloroquine-sensitive strain NF54, 72 h, read-out: IC50 for P. falciparum NF54. The data set is classed as cell-based. The text has this: (§1) The ratio of the growth inhibition of a strain which is especially resistant to chloroquine and of a strain which is sensitive to chloroquine gives as the "resistance index" a measurement for the absence of a cross-resistance with chloroquine. Since, for all novel compounds the resistance index lies between 0.7 and 2.5, they inhibit the growth of sensitive as well as resistant strains of the malaria pathogen equally effectively. They are accordingly also suitable for the prophylaxis of a malaria disease and also for the treatment of a malaria disease even when chloroquine is ineffective. The good activity against malaria pathogens is also shown in animal experiments. The effective doses measured after oral and subcutaneous administration to mice infected with malaria pathogens are shown in Table 2 hereinafter.
(§2) Test method for the determination of the activity against Plasmodium falciparum in vitro
(§3) The preparations are tested on intraerythrocytary stages of Plasmodium falciparum from asynchronous cultures according to the method of Desjardin et al. (Desjardins, R. E. et al: Quantitative assessment of antimalarial activity in vitro by a semiautomated microdilution technique. Antimicrob. Agents Chemother. 16, 710-718, (1979)).
(§4) The culture medium consists of RPMI 1640 with the addition of 25 mM HEPES, 25 mM NaHCO3, 100 μg/ml neomycin and […] (A^+). Human-A^+ erythrocytes are used as the Plasmodium falciparum host cells. The parasites are maintained at 37° C. in an atmosphere of 3% O2, 4% CO2, 93% N2 and 95% relative humidity.
(§5) In order to determine the activity, the preparations are dissolved in DMSO, pre-diluted in the culture medium to a suitable starting concentration and subsequently titrated-out on to microtitre plates in the 2nd stage over 6-7 steps. After the addition of the parasite culture (0.7% parasitemia in 2.5% erythrocyte suspension) the test plates are incubated under the conditions given above for 72 h. The parasite growth in the different preparation concentrations is determined using [G-^3 H]-hypoxanthin incorporation compared to untreated control cultures on the same test plates. The 50% growth inhibition (IC50) is calculated according to logit regression analysis from the resulting dosage-activity curve.
(§6) The preparations are tested on at least one chloroquine-resistant and one chloroquine-sensitive Plasmodium falciparum strain. Additional sensitive and resistant strains are included for further characterization.

Data set [2] relates to Plasmodium falciparum K1. Put plainly: Growth inhibition of Plasmodium falciparum K1 (chloroquine-resistant) in vitro, [G-3H]-hypoxanthin incorporation. It is filed as cell-based, Plasmodium falciparum (strain K1). To be noted: for IC50: Plasmodium falciparum, K1, 72 h, read-out: IC50 for P. falciparum K1; for Resistance index: ratio of the IC50 for K1 and the IC50 for NF54.
Excerpt: as §1, §2, §3, §4, §5, §6

In data set [3] the test system is Plasmodium berghei. Put plainly: animal or person. The data set is classed as in vivo, Plasmodium berghei (strain ANKA) in mice. To be noted: for inhibition in vivo at 10 mg/kg: Plasmodium berghei, mice, blood smears 48 h after treatment. As to the method:
Test method for the determination of the activity against Plasmodium berghei in vivo
The preparations are tested on mice infected with malaria pathogens (Plasmodium berghei). Male albino mice (IBM:MORO(SPF), FUELLINSDORF) weighing about 25 g are used as the test animals. They are kept in climatized rooms at 21-22° C. in groups of 5 animals per cage. They receive ad libitum a diet feed with a low PABA content (NAFAG FUTTER " No. 9009 PAB-45, PABA content 45 mg/kg) and drinking water. On the first day of the test (D0) the test animals are infected with Plasmodium berghei (strain ANKA). For this there is used heparinized blood of a donor mouse with about 30% parasitemia, which is diluted with physiological saline such that it contains 10^8 parasitized erythrocytes per ml. 0.2 ml of this suspension is injected intravenously (i.v.) into the mice to be treated and into the control mice.
The substances to be tested are dissolved or suspended in distilled water or in a mixture of 7% Tween 80, 3% alcohol (96%) and water. Usually, 0.25 ml of this solution or suspension is administered once subcutaneously and perorally to groups of 5 test animals. Treatment is effected 24 hours after the infection. 10 control animals are treated in the same manner with solvent or suspension medium per test.
All substances are tested in a first test in a single dosage of 10 mg/kg. Only those substances which in this test (10 mg/kg) have shown a parasitaemia reduction of 90% are used for the titration. Suitable dilutions of the test substance can be used to obtain an accurate titration of the activity.
48 hours after the treatment (D+3) blood smears are prepared from all animals using blood from tail veins and are stained with giemsa. […] The difference in the average values of the infection rates of control group (100%) and treated groups is calculated and expressed as a percentage reduction (GI%). The ED50 or ED90 is determined mathematically by means of the JMP programme (nonlinear fit). The ED50 (ED90) in mg/kg is that dose which after single administration reduces the average erythrocyte infection rate by 50% (90%) in comparison to the control group.

Where [4] appears, read: sc, single subcutaneous dose of 10 mg/kg, read-out: Growth inhibition in % after sc administration (GI%, percentage reduction of the parasitemia).
Setting [5] is: po, single peroral dose of 10 mg/kg, read-out: Growth inhibition in % after po administration (GI%, percentage reduction of the parasitemia).

Counter-ions that a name gives are not always drawn. Like-named read-outs stand apart in the source and are kept apart here.

For the compound `Cl.Cl.Clc1ccc2c(N[C@H]3CC[C@@H](NCc4c(Cl)cccc4Cl)CC3)ccnc2c1` [Example 15, cis-N1-(7-Chloro-quinolin-4-yl)-N4-(2,6-dichloro-benzyl)-cyclohexane-1,4-diamine dihydrochloride], the IC50 (in general, the midpoint of a concentration-inhibition curve) in data set [1] is 4.3 ng/mL. Further, in data set [2], the IC50 was 0.0147 µg/mL and the Resistance index came to 3.4. In data set [3] (setting [4]), the inhibition in vivo at 10 mg/kg was found to be 92%.

On to `COc1cccc(OC)c1CN[C@H]1CC[C@@H](Nc2ccnc3cc(Cl)ccc23)CC1.Cl.Cl` [Example 16, cis-N1-(7-Chloro-quinolin-4-yl)-N4-(2,6-dimethoxy-benzyl)-cyclohexane-1,4-diamine dihydrochloride], for which the IC50 in data set [1] stood at 2 ng/mL; in data set [2] it was 0.017 µg/mL. Also, in data set [2], the Resistance index was 8.5. Moreover, the inhibition in vivo at 10 mg/kg came out at 99.8% in data set [3] (setting [5]) and 99.9% in data set [3] (setting [4]).

In the case of `Cl.Cl.Clc1ccc2c(N[C@H]3CC[C@@H](NCc4c(Cl)ccc(Cl)c4Cl)CC3)ccnc2c1` [Example 17, cis-N1-(7-Chloro-quinolin-4-yl)-N4-(2,3,6-trichloro-benzyl)-cyclohexane-1,4-diamine dihydrochloride], the IC50 in data set [1] was 6.4 ng/mL; in data set [2] it was 0.0174 µg/mL. Besides, in data set [2], the Resistance index was 2.8. Moreover, the inhibition in vivo at 10 mg/kg is 32% in data set [3] (setting [5]) and 87% in data set [3] (setting [4]).

Consider `COc1cc(O)c(CN[C@H]2CC[C@@H](Nc3ccnc4cc(Cl)ccc34)CC2)c(OC)c1.Cl.Cl` [Example 18, cis-2-{[4-(7-Chloro-quinolin-4-ylamino)-cyclohexylamino]-methyl}-3,5-dimethoxy-phenol dihydrochloride], for which the IC50 in data set [1] came out at 5.5 ng/mL; in data set [2] it was 0.021 µg/mL. The Resistance index in data set [2] came out at 3.8. Further, the inhibition in vivo at 10 mg/kg in data set [3] (setting [5]) and in data set [3] (setting [4]) was 100% each time.

Turning to `Cl.Cl.Fc1cccc(F)c1CN[C@H]1CC[C@@H](Nc2ccnc3cc(Cl)ccc23)CC1` [Example 19, cis-N1-(7-Chloro-quinolin-4-yl)-N4-(2,6-difluoro-benzyl)-cyclohexane-1,4-diamine dihydrochloride], in data set [1], the IC50 is 4.9 ng/mL. Further, in data set [2], the IC50 was found to be 0.0143 µg/mL and the Resistance index is listed as 2.9. In addition, in data set [3] (setting [5]), the inhibition in vivo at 10 mg/kg came to 21%. For the same compound, the “Growth inhibition after sc administration: entry "toxic"” value in data set [3] (mouse, in vivo, sc, 10 mg/kg) is “toxic”.

As for `Clc1ccc2c(N[C@H]3CC[C@@H](NCCCc4ccccc4)CC3)ccnc2c1` [Example 20, cis-N1-(7-Chloro-quinolin-4-yl)-N4-(3-phenyl-propyl)-cyclohexane-1,4-diamine dihydrochloride], the IC50 in data set [1] was determined as 4.4 ng/mL; in data set [2], 0.0108 µg/mL. In data set [2], the Resistance index came to 2.5. The inhibition in vivo at 10 mg/kg came to 94% in data set [3] (setting [5]) and 98% in data set [3] (setting [4]).

Regarding `COc1ccc(CN[C@H]2CC[C@@H](Nc3ccnc4cc(Cl)ccc34)CC2)cc1.Cl.Cl` [Example 21, cis-N1-(7-Chloro-quinolin-4-yl)-N4-(4-methoxy-benzyl)-cyclohexane-1,4-diamine dihydrochloride], the IC50 was determined as 5.1 ng/mL in data set [1] and 0.0093 µg/mL in data set [2]. The Resistance index in data set [2] came to 1.8. Also, the inhibition in vivo at 10 mg/kg in data set [3] (setting [5]) amounted to 99.9%; in data set [3] (setting [4]), 100%.

For the compound `Cl.Cl.O=[N+]([O-])c1cccc(Cl)c1CN[C@H]1CC[C@@H](Nc2ccnc3cc(Cl)ccc23)CC1` [Example 22, cis-N1-(2-Chloro-6-nitro-benzyl)-N4-(7-chloro-quinolin-4-yl)-cyclohexane-1,4-diamine dihydrochloride], the IC50 in data set [1] amounted to 11.6 ng/mL; in data set [2], 0.0189 µg/mL. In data set [2], the Resistance index is 1.6. For the same compound, the inhibition in vivo at 10 mg/kg in data set [3] (setting [5]) came out at 42%; in data set [3] (setting [4]), 84%.

As to `CC(C)(CNc1ccnc2cc(Cl)ccc12)NCc1cc(Cl)cc(Cl)c1.Cl.Cl` [Example 23, N1-(7-Chloro-quinolin-4-yl)-N2-(3,5-dichloro-benzyl)-2-methylpropane-1,2-diamine dihydrochloride], the IC50 was 29.6 ng/mL in data set [1] and 0.0325 µg/mL in data set [2]. Moreover, the Resistance index in data set [2] stood at 1.1. Further, the inhibition in vivo at 10 mg/kg in data set [3] (setting [5]) is 97%; in data set [3] (setting [4]), 98%.

On to `CC(C)(CNc1ccnc2cc(Cl)ccc12)NCc1ccccc1` [Example 24, N1-(7-Chloro-quinolin-4-yl)-N2-(benzyl)-2-methyl-propane-1,2-diamine dihydrochloride], for which the IC50 was 7.9 ng/mL in data set [1] and 0.0132 µg/mL in data set [2]. Moreover, the Resistance index in data set [2] amounted to 1.7. Moreover, the inhibition in vivo at 10 mg/kg in data set [3] (setting [5]) was found to be 81%; in data set [3] (setting [4]) it was 95%.

Regarding `CC(C)(CNc1ccnc2cc(Cl)ccc12)NCc1ccc(Cl)cc1` [Example 25, N1-(7-Chloro-quinolin-4-yl)-N2-(4-chloro-benzyl)-2-methyl-propane-1,2-diamine dihydrochloride], the IC50 in data set [1] was found to be 17.3 ng/mL; in data set [2], 0.0129 µg/mL. Besides, the Resistance index in data set [2] is given as 0.7. Moreover, the figures for the inhibition in vivo at 10 mg/kg in data set [3] (setting [5]) and in data set [3] (setting [4]) were 99.2% and 99.8%, respectively.

In the case of `CC(C)(CNc1ccnc2cc(Cl)ccc12)NCc1ccc(Cl)c(F)c1.Cl.Cl` [Example 27, N1-(7-Chloro-quinolin-4-yl)-N2-(4-chloro-3-fluoro-benzyl)-2-methyl-propane-1,2-diamine dihydrochloride], the IC50 is 16 ng/mL in data set [1] and 0.0233 µg/mL in data set [2]. In addition, in data set [2], the Resistance index was found to be 1.5. The results for the inhibition in vivo at 10 mg/kg in data set [3] (setting [5]) and in data set [3] (setting [4]) were 99% and 98%, respectively.

Turning to `CC(=O)O.CC(=O)O.CC(C)(CNc1ccnc2cc(Cl)ccc12)NCc1ccccc1O` [Example 28, N1-(7-Chloro-quinolin-4-yl)-N2-(2-hydroxybenzyl)-2-methyl-propane-1,2-diamine diacetate], the IC50 was 4 ng/mL in data set [1] and 0.0107 µg/mL in data set [2]. Further, the Resistance index in data set [2] came to 2.7. Also, the inhibition in vivo at 10 mg/kg in data set [3] (setting [5]) was 79%; in data set [3] (setting [4]) it was 96%.

As to `COc1ccc(CNC(C)(C)CNc2ccnc3cc(Cl)ccc23)c(O)c1.Cl.Cl` [Example 29, N1-(7-Chloro-quinolin-4-yl)-N2-(2-hydroxy-4-methoxy-benzyl)-2-methyl-propane-1,2-diamine dihydrochloride], the IC50 amounted to 7.7 ng/mL in data set [1] and 0.0162 µg/mL in data set [2]. The Resistance index in data set [2] was determined as 2.1. Besides, the inhibition in vivo at 10 mg/kg in data set [3] (setting [5]) turned out to be 74%; in data set [3] (setting [4]), 99%.
